Data taken from patent US8618138B2, “Indole amide derivatives and related compounds for use in the treatment of neurodegenerative diseases” (Katholieke Universiteit Leuven, K.U. Leuven R&D, priority 2009, dated 2013).

System: M17-TAU P301L cells
Assay: TAU cytotoxicity assay: LDH leakage of retinoic acid incubated M17-TAU P301L cells
Format: cell-based, human
Conditions: Homo sapiens, 168 h, reduction of LDH activity of retinoic acid incubated M17-TAU P301L cells, 7 days
In short: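 M17 neuroblastoma cells stably expressing human TAU P301L, seeded at 2500 cells/cm2 in Optimem with 1% FCS, then given 2.5 μM retinoic acid (stock before 1:1 addition) and grown 7 days at 37 °C. Cytotoxicity read as LDH leaked into medium; EC50 derived from these measurements.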

Row | SMILES | EC50 [nM]
1 | O=C(NCCc1c[nH]c2ccc(Cl)cc12)C1=N[C@@H](C2CCCCC2)CO1 [Example D59, (S)-N-(2-(5-chloro-1H-indol-3-yl)ethyl)-4-cyclohexyl-4,5-dihydrooxazole-2-carboxamide] | 211
2 | CN(C)c1cc(C(=O)NCCc2c[nH]c3ccc(Cl)cc23)no1 [Example D124, N-(2-(5-chloro-1H-indol-3-yl)ethyl)-5-(dimethylamino)isoxazole-3-carboxamide] | 5290
3 | O=C(NCCc1c[nH]c2ccc(Cl)cc12)c1ccnn1-c1ccccc1 [Example D117, N-(2-(5-chloro-1H-indol-3-yl)ethyl)-1-phenyl-1H-pyrazole-5-carboxamide] | 979
4 | COc1ccc(N2CCC(C(=O)NCCc3c[nH]c4ccc(Cl)cc34)C2=O)cc1 (stereo not shown) [Example D70, N-(2-(5-chloro-1H-indol-3-yl)ethyl)-1-(4-methoxyphenyl)-2-oxopyrrolidine-3-carboxamide] | 408
5 | O=C(NCCc1c[nH]c2ccc(Cl)cc12)c1noc(Cc2ccc(F)cc2F)n1 [Example D189, N-(2-(5-chloro-1H-indol-3-yl)ethyl)-5-(2,4-difluorobenzyl)-1,2,4-oxadiazole-3-carboxamide] | 15
6 | CC(C)(C)c1cc(C(=O)NCCc2c[nH]c3ccc(Cl)cc23)n(Cc2ccccc2)n1 [Example D120, 1-benzyl-3-tert-butyl-N-(2-(5-chloro-1H-indol-3-yl)ethyl)-1H-pyrazole-5-carboxamide] | 868
7 | O=C(NCCc1c[nH]c2ccc(Cl)cc12)C1CCN(c2ccc(F)c(F)c2)C1=O (stereo not shown) [Example D148, N-(2-(5-chloro-1H-indol-3-yl)ethyl)-1-(3,4-difluorophenyl)-2-oxopyrrolidine-3-carboxamide] | 691
8 | COc1cccc(Cc2cc(C(=O)NCCc3c[nH]c4ccc(Cl)cc34)no2)c1F [Example D21, N-(2-(5-chloro-1H-indol-3-yl)ethyl)-5-(2-fluoro-3-methoxybenzyl)isoxazole-3-carboxamide] | 25
9 | Cc1cc(C(=O)NCCc2c[nH]c3ccc(Cl)cc23)no1 [Example D114, N-(2-(5-chloro-1H-indol-3-yl)ethyl)-5-methylisoxazole-3-carboxamide] | 30
10 | O=C(NCCc1c[nH]c2ccc(Cl)cc12)C1=NOC(Cc2ccccc2)C1 (stereo not shown) [Example D43, 5-benzyl-N-(2-(5-chloro-1H-indol-3-yl)ethyl)-4,5-dihydroisoxazole-3-carboxamide] | 94
11 | O=C(NCCc1c[nH]c2ccc(Cl)cc12)c1cc(Cc2ccoc2)on1 [Example D22, N-(2-(5-chloro-1H-indol-3-yl)ethyl)-5-(furan-3-ylmethyl)isoxazole-3-carboxamide] | 28
12 | O=C(NCCc1c[nH]c2ccc(Cl)cc12)c1cc(Cc2cccc(F)c2F)on1 [Example D130, N-(2-(5-chloro-1H-indol-3-yl)ethyl)-5-(2,3-difluorobenzyl)isoxazole-3-carboxamide] | 20
13 | O=C(NCCc1c[nH]c2ccc(Cl)cc12)c1cn(Cc2ccccc2)nn1 [Example D54, 1-benzyl-N-(2-(5-chloro-1H-indol-3-yl)ethyl)-1H-1,2,3-triazole-4-carboxamide] | 173
14 | N#Cc1cccc(Cc2cc(C(=O)NCCc3c[nH]c4ccc(Cl)cc34)no2)c1 [Example D3, N-(2-(5-chloro-1H-indol-3-yl)ethyl)-5-(3-cyanobenzyl)isoxazole-3-carboxamide] | 6
15 | O=C(NCCc1c[nH]c2ccc(Cl)cc12)c1cc(C2CCCCC2)on1 [Example D13, N-(2-(5-chloro-1H-indol-3-yl)ethyl)-5-cyclohexylisoxazole-3-carboxamide] | 18
16 | O=C(NCCc1c[nH]c2ccc(Cl)cc12)c1cc(Cc2cccc(F)c2)on1 [Example D23, N-(2-(5-chloro-1H-indol-3-yl)ethyl)-5-(3-fluorobenzyl)isoxazole-3-carboxamide] | 30
17 | CCCc1cc(-c2nc(C)c(C(=O)NCCc3c[nH]c4ccccc34)s2)ccn1 [Example D33, N-(2-(1H-indol-3-yl)ethyl)-4-methyl-2-(2-propylpyridin-4-yl)thiazole-5-carboxamide] | 56
18 | COc1ccccc1N1CCC(C(=O)NCCc2c[nH]c3ccc(Cl)cc23)C1=O (stereo not shown) [Example D163, N-(2-(5-chloro-1H-indol-3-yl)ethyl)-1-(2-methoxyphenyl)-2-oxopyrrolidine-3-carboxamide] | 1860
19 | O=C(NCCc1c[nH]c2ccc(Cl)cc12)c1cc(-c2cccs2)on1 [Example D16, N-(2-(5-chloro-1H-indol-3-yl)ethyl)-5-(thiophen-2-yl)isoxazole-3-carboxamide] | 21
20 | Cc1onc(-c2ccccc2)c1C(=O)NCCc1c[nH]c2ccc(Cl)cc12 [Example D111, N-(2-(5-chloro-1H-indol-3-yl)ethyl)-5-methyl-3-phenylisoxazole-4-carboxamide] | 582

Row | SMILES | EC50 [nM]
21 | Cc1ccc(-c2nc(C)c(C(=O)NCCc3c[nH]c4ccc(F)cc34)s2)cc1 [Example D37, N-(2-(5-fluoro-1H-indol-3-yl)ethyl)-4-methyl-2-p-tolylthiazole-5-carboxamide] | 61
22 | O=C(NCCc1c[nH]c2cc(F)ccc12)c1cc(Cc2cccc(F)c2)on1 [Example D47, N-(2-(6-fluoro-1H-indol-3-yl)ethyl)-5-(3-fluorobenzyl)isoxazole-3-carboxamide] | 132
23 | Cn1nc(C(=O)NCCc2c[nH]c3ccc(Cl)cc23)cc1-c1cccs1 [Example D15, N-(2-(5-chloro-1H-indol-3-yl)ethyl)-1-methyl-5-(thiophen-2-yl)-1H-pyrazole-3-carboxamide] | 21
24 | N#Cc1ccc2[nH]cc(CCNC(=O)c3cc(Cc4cc(F)ccc4F)on3)c2c1 [Example D137, N-(2-(5-cyano-1H-indol-3-yl)ethyl)-5-(2,5-difluorobenzyl)isoxazole-3-carboxamide] | 32
25 | O=C(NCCc1c[nH]c2ccc(Cl)cc12)c1cc(C2CC2)on1 [Example D6, N-(2-(5-chloro-1H-indol-3-yl)ethyl)-5-cyclopropylisoxazole-3-carboxamide] | 13
26 | O=C(NCCc1c[nH]c2ccccc12)c1cc(Cc2cccc(F)c2)on1 [Example D31, N-(2-(1H-indol-3-yl)ethyl)-5-(3-fluorobenzyl)isoxazole-3-carboxamide] | 44
27 | Cc1oc(-c2ccccc2)nc1C(=O)NCCc1c[nH]c2ccc(Cl)cc12 [Example D62, N-(2-(5-chloro-1H-indol-3-yl)ethyl)-5-methyl-2-phenyloxazole-4-carboxamide] | 237
28 | CCN(CC)Cc1cc(C(=O)NCCc2c[nH]c3ccc(Cl)cc23)no1 [Example D125, N-(2-(5-chloro-1H-indol-3-yl)ethyl)-5-((diethylamino)methyl)isoxazole-3-carboxamide] | 347
29 | Cc1cc2c(CCNC(=O)c3cc(Cc4cc(F)ccc4F)on3)c[nH]c2cc1Cl [Example D136, N-(2-(6-chloro-5-methyl-1H-indol-3-yl)ethyl)-5-(2,5-difluorobenzyl)isoxazole-3-carboxamide] | 741
30 | O=C(NCCc1c[nH]c2ccc(Cl)cc12)C1CCN(c2ccccc2F)C1=O (stereo not shown) [Example D79, N-(2-(5-chloro-1H-indol-3-yl)ethyl)-1-(2-fluorophenyl)-2-oxopyrrolidine-3-carboxamide] | 857
31 | COc1ccc(Cc2nc(C(=O)NCCc3c[nH]c4ccc(Cl)cc34)no2)cc1 [Example D173, N-(2-(5-chloro-1H-indol-3-yl)ethyl)-5-(4-methoxybenzyl)-1,2,4-oxadiazole-3-carboxamide] | 60
32 | Cc1ccc2[nH]cc(CCNC(=O)c3cc(Cc4cccc(F)c4)on3)c2c1 [Example D14, 5-(3-fluorobenzyl)-N-(2-(5-methyl-1H-indol-3-yl)ethyl)isoxazole-3-carboxamide] | 19
33 | Cc1ncoc1C(=O)NCCc1c[nH]c2ccc(Cl)cc12 [Example D112, N-(2-(5-chloro-1H-indol-3-yl)ethyl)-4-methyloxazole-5-carboxamide] | 1250
34 | Cn1ccc(C(=O)NCCc2c[nH]c3ccc(Cl)cc23)n1 [Example D118, N-(2-(5-chloro-1H-indol-3-yl)ethyl)-1-methyl-1H-pyrazole-3-carboxamide] | 332
35 | O=C(NCCc1c[nH]c2ccc(Cl)cc12)c1cc(Cc2cc(F)cc(F)c2)on1 [Example D131, N-(2-(5-chloro-1H-indol-3-yl)ethyl)-5-(3,5-difluorobenzyl)isoxazole-3-carboxamide] | 13
36 | Cc1nc(-c2cnccn2)sc1C(=O)NCCc1c[nH]c2ccc(Cl)cc12 [Example D73, N-(2-(5-chloro-1H-indol-3-yl)ethyl)-4-methyl-2-(pyrazin-2-yl)thiazole-5-carboxamide] | 515
37 | O=C(NCCc1c[nH]c2ccc(Cl)cc12)C1CCN(c2cccc(F)c2)C1=O (stereo not shown) [Example D65, N-(2-(5-chloro-1H-indol-3-yl)ethyl)-1-(3-fluorophenyl)-2-oxopyrrolidine-3-carboxamide] | 321
38 | COc1cccc(Cc2cc(C(=O)NCCc3c[nH]c4ccc(Cl)cc34)no2)c1 [Example D1, N-(2-(5-chloro-1H-indol-3-yl)ethyl)-5-(3-methoxybenzyl)isoxazole-3-carboxamide] | 2
39 | COc1ccc2[nH]cc(CCNC(=O)c3sc(-c4ccc(C)cc4)nc3C)c2c1 [Example D32, N-(2-(5-methoxy-1H-indol-3-yl)ethyl)-4-methyl-2-p-tolylthiazole-5-carboxamide] | 50

Same assay, conditions: reduction of LDH activity of retinoic acid incubated M17-TAU P301L cells, 7 days

Row | SMILES | EC50 [nM]
40 | CC(c1ccccc1)N1CCC(C(=O)NCCc2c[nH]c3ccc(Cl)cc23)C1=O (single isomer, unassigned) [D156 Fraction B, N-(2-(5-chloro-1H-indol-3-yl)ethyl)-2-oxo-1-(1-phenylethyl)pyrrolidine-3-carboxamide] | 1180
